Inconclusive results and toxic doses are left out. No stated cut-off is given here; in the data, active means T/C of 150% or more; inactive means T/C below 125%.
System: L1210 leukemia ip in BDF1 mice, survival T/C
Assay: NCI In Vivo Anticancer Drug Screen. Data for tumor model L1210 Leukemia (intraperitoneal) in B6D2F1 (BDF1) mice
Conditions: endpoint: mean survival time, higher = longer survival
Summary of the method: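 Transplanted-tumor mice were given test agent; controls received vehicle only. Survival readings from the two groups were divided (treated over control).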

[1] = dose: 100.0 mg/kg/injection, schedule: Q01DX001 (ip), vehicle: saline
[2] = dose: 100.0 mg/kg/injection, schedule: Q01DX009 (ip), vehicle: saline
[3] = dose: 200.0 mg/kg/injection, schedule: Q01DX001 (ip), vehicle: saline
[4] = dose: 200.0 mg/kg/injection, schedule: Q01DX009 (ip), vehicle: saline
[5] = dose: 400.0 mg/kg/injection, schedule: Q01DX009 (ip), vehicle: saline
[6] = dose: 100.0 mg/kg/injection, schedule: Q04DX003 (ip), vehicle: saline
[7] = dose: 200.0 mg/kg/injection, schedule: Q04DX003 (ip), vehicle: saline
[8] = dose: 400.0 mg/kg/injection, schedule: Q04DX003 (ip), vehicle: saline
[9] = dose: 100.0 mg/kg/injection, schedule: Q01DX009 (ip), vehicle: Klucel (hydroxypropylcellulose) (HPC)
[10] = dose: 100.0 mg/kg/injection, schedule: Q04DX003 (ip), vehicle: Klucel (hydroxypropylcellulose) (HPC)
[11] = dose: 200.0 mg/kg/injection, schedule: Q01DX009 (ip), vehicle: Klucel (hydroxypropylcellulose) (HPC)
[12] = dose: 200.0 mg/kg/injection, schedule: Q04DX003 (ip), vehicle: Klucel (hydroxypropylcellulose) (HPC)
[13] = dose: 400.0 mg/kg/injection, schedule: Q04DX003 (ip), vehicle: Klucel (hydroxypropylcellulose) (HPC)
[14] = dose: 50.0 mg/kg/injection, schedule: Q01DX009 (ip), vehicle: Klucel (hydroxypropylcellulose) (HPC)
[15] = dose: 100.0 mg/kg/injection, schedule: Q01DX009 (ip), vehicle: saline with Tween-80
[16] = dose: 200.0 mg/kg/injection, schedule: Q01DX009 (ip), vehicle: saline with Tween-80
[17] = dose: 400.0 mg/kg/injection, schedule: Q01DX009 (ip), vehicle: saline with Tween-80
[18] = dose: 50.0 mg/kg/injection, schedule: Q01DX001 (ip), vehicle: carboxymethylcellulose (CMC)
[19] = dose: 100.0 mg/kg/injection, schedule: Q01DX001 (ip), vehicle: carboxymethylcellulose (CMC)
[20] = dose: 200.0 mg/kg/injection, schedule: Q01DX001 (ip), vehicle: carboxymethylcellulose (CMC)
[21] = dose: 400.0 mg/kg/injection, schedule: Q01DX001 (ip), vehicle: carboxymethylcellulose (CMC)
[22] = dose: 400.0 mg/kg/injection, schedule: Q04DX002 (ip), vehicle: saline with Tween-80
[23] = dose: 100.0 mg/kg/injection, schedule: Q04DX002 (ip), vehicle: Klucel (hydroxypropylcellulose) (HPC)
[24] = dose: 200.0 mg/kg/injection, schedule: Q04DX002 (ip), vehicle: Klucel (hydroxypropylcellulose) (HPC)
[25] = dose: 400.0 mg/kg/injection, schedule: Q04DX002 (ip), vehicle: Klucel (hydroxypropylcellulose) (HPC)

Measured: T/C

Cc1nn(C2CC(O)C(O)C(CO)O2)c(=O)[nH]c1=O (stereo not drawn)
inactive: dose: 50.0 mg/kg/injection, schedule: Q01DX001 (ip), vehicle: saline 93 % of control | [1] 96 % of control | [2] 92 % of control | [3] 104 % of control | [4] 95 % of control | dose: 400.0 mg/kg/injection, schedule: Q01DX001 (ip), vehicle: saline 98 % of control | [5] 98 % of control

CN1CCCC(=O)NC1=O
inactive: [2] 96 % of control | [6] 104 % of control | [4] 97 % of control | [7] 98 % of control | [5] 102 % of control | [8] 95 % of control

CC(C)OP(=O)(NC12CC3CC(CC(C3)C1)C2)OC(C)C
inactive: [9] 103 % of control | [10] 95 % of control | [11] 100 % of control | [12] 96 % of control | dose: 400.0 mg/kg/injection, schedule: Q01DX009 (ip), vehicle: Klucel (hydroxypropylcellulose) (HPC) 90 % of control | [13] 100 % of control

CS(=O)(=O)OCC1(c2ccccc2)CCCCC1
inactive: dose: 100.0 mg/kg/injection, schedule: Q01DX001 (sc), vehicle: olive oil, sesame oil, peanut oil 101 % of control | dose: 200.0 mg/kg/injection, schedule: Q01DX001 (sc), vehicle: olive oil, sesame oil, peanut oil 103 % of control | dose: 400.0 mg/kg/injection, schedule: Q01DX001 (sc), vehicle: olive oil, sesame oil, peanut oil 108 % of control

COc1ccccc1C(C#N)N1CCCN(C(C#N)c2ccccc2OC)C1c1cc(Cl)cc(Cl)c1O (stereo not drawn)
inactive: [2] 103 % of control | [6] 112 % of control | [4] 88 % of control | [7] 97 % of control | [5] 90 % of control | [8] 97 % of control

CC1(C)N=C(N)N=C(N)N1c1cccc(CC(=O)Nc2ccc(S(=O)(=O)F)cc2)c1
inactive: dose: 0.8 mg/kg/injection, schedule: Q01DX009 (ip), vehicle: saline 101 % of control | dose: 4.0 mg/kg/injection, schedule: Q01DX009 (ip), vehicle: saline 100 % of control | dose: 20.0 mg/kg/injection, schedule: Q01DX009 (ip), vehicle: saline 110 % of control | dose: 25.0 mg/kg/injection, schedule: Q01DX009 (ip), vehicle: Klucel (hydroxypropylcellulose) (HPC) 108 % of control | dose: 25.0 mg/kg/injection, schedule: Q01DX009 (ip), vehicle: saline with Tween-80 103 % of control | [14] 113 % of control | dose: 50.0 mg/kg/injection, schedule: Q01DX009 (ip), vehicle: saline with Tween-80 100 % of control | dose: 88.0 mg/kg/injection, schedule: Q01DX009 (ip), vehicle: saline with Tween-80 102 % of control | [9] 109 % of control | [2] 117 % of control | dose: 132.0 mg/kg/injection, schedule: Q01DX009 (ip), vehicle: saline with Tween-80 121 % of control | dose: 150.0 mg/kg/injection, schedule: Q01DX009 (ip), vehicle: Klucel (hydroxypropylcellulose) (HPC) 105 % of control | dose: 300.0 mg/kg/injection, schedule: Q01DX009 (ip), vehicle: saline with Tween-80 89 % of control

CN1CCC2CCC(C1)N2C (stereo not drawn)
inactive: dose: 75.0 mg/kg/injection, schedule: Q01DX001 (ip), vehicle: saline 93 % of control | dose: 150.0 mg/kg/injection, schedule: Q01DX001 (ip), vehicle: saline 100 % of control

CCC(C)OC(=O)Nc1cccc(O)c1 (stereo not drawn)
inactive: [15] 91 % of control | [16] 89 % of control | [17] 90 % of control

Cc1ccc(S(=O)(=O)N(CCC(=O)O)c2ccccc2)cc1
inactive: [15] 90 % of control | [16] 97 % of control

Cc1ccc(I)c([N+](=O)[O-])c1
inactive: [18] 96 % of control | [19] 89 % of control | [20] 91 % of control | [21] 100 % of control

CCOCCS(=O)(=O)CCS(=O)(=O)CCOCC
inactive: [2] 95 % of control | [4] 103 % of control | [5] 108 % of control

Cn1c(=O)cc(CC(=O)O)c2ccccc21
inactive: dose: 100.0 mg/kg/injection, schedule: Q01DX001 (ip), vehicle: other 95 % of control | dose: 200.0 mg/kg/injection, schedule: Q01DX001 (ip), vehicle: other 95 % of control | dose: 400.0 mg/kg/injection, schedule: Q01DX001 (ip), vehicle: other 98 % of control

CC(=O)C1C=NC(C)(C)C(C)(C)N=CC(C(C)=O)C(C)=NCCCN=C1C.[Ni] (stereo not drawn)
inactive: dose: 12.5 mg/kg/injection, schedule: Q04DX002 (ip), vehicle: saline 97 % of control | dose: 25.0 mg/kg/injection, schedule: Q04DX002 (ip), vehicle: saline 97 % of control

CCOC(=O)c1cnc(SC)nc1Nc1cccc(C)c1
inactive: dose: 100.0 mg/kg/injection, schedule: Q04DX003 (ip), vehicle: saline with Tween-80 86 % of control | dose: 200.0 mg/kg/injection, schedule: Q04DX003 (ip), vehicle: saline with Tween-80 91 % of control | dose: 400.0 mg/kg/injection, schedule: Q04DX003 (ip), vehicle: saline with Tween-80 86 % of control

CCCCCCCCCCCC[P+](CCCC)(CCCC)CCCC
inactive: dose: 0.55 mg/kg/injection, schedule: Q01DX Z (ip), vehicle: saline 110 % of control | dose: 1.16 mg/kg/injection, schedule: Q01DX Z (ip), vehicle: saline 100 % of control | dose: 1.25 mg/kg/injection, schedule: Q01DX Z (ip), vehicle: saline 110 % of control

CCCCC(=O)N/N=C/c1ccccc1Cl
inactive: [1] 102 % of control | [3] 104 % of control

CCOC(=O)C(C)(NC(C)=O)C(C)=O (stereo not drawn)
inactive: [18] 106 % of control | [19] 114 % of control | [20] 101 % of control | [21] 92 % of control

C=CCN(CC=C)c1ncnc(N(C)C)n1
inactive: dose: 25.6 mg/kg/injection, schedule: Q04DX002 (ip), vehicle: saline with Tween-80 93 % of control | dose: 64.0 mg/kg/injection, schedule: Q04DX002 (ip), vehicle: saline with Tween-80 101 % of control | dose: 160.0 mg/kg/injection, schedule: Q04DX002 (ip), vehicle: saline with Tween-80 101 % of control | [22] 97 % of control

CCOC(=O)CCC(NC(=O)c1c(Cl)cc(N(C)S(=O)(=O)c2ccc(C)cc2)cc1Cl)C(=O)OCC (stereo not drawn)
inactive: [10] 105 % of control | [12] 97 % of control | [13] 97 % of control

Cc1ccc(C(=O)CC(Sc2ccccc2N)c2c(Cl)cccc2Cl)c(C)c1 (stereo not drawn)
inactive: [14] 94 % of control | dose: 100.0 mg/kg/injection, schedule: Q01DX005 (ip), vehicle: Klucel (hydroxypropylcellulose) (HPC) 108 % of control | [9] 94 % of control | [23] 98 % of control | dose: 200.0 mg/kg/injection, schedule: Q01DX005 (ip), vehicle: Klucel (hydroxypropylcellulose) (HPC) 89 % of control | [11] 91 % of control | [24] 109 % of control | [25] 117 % of control

O/N=C/c1ccco1
inactive: dose: 100.0 mg/kg/injection, schedule: Q04DX002 (ip), vehicle: saline with Tween-80 100 % of control | dose: 200.0 mg/kg/injection, schedule: Q04DX002 (ip), vehicle: saline with Tween-80 103 % of control | [22] 103 % of control

Cc1ccc([N+](=O)[O-])cc1NC(=O)N(CCO)C1CCCCC1
inactive: [23] 101 % of control | [24] 100 % of control | [25] 104 % of control

COC(=O)/C=C(\C)Oc1cc(Cl)c(Cl)cc1Cl
inactive: [15] 94 % of control | [16] 97 % of control | [17] 97 % of control

Cc1cc(=S)cc(C)o1
inactive: dose: 100.0 mg/kg/injection, schedule: Q04DX002 (ip), vehicle: gum acacia 93 % of control | dose: 200.0 mg/kg/injection, schedule: Q04DX002 (ip), vehicle: gum acacia 109 % of control

Reference: PubChem BioAssay AID248 (DTP/NCI, 2004)
